target: Factor D (Homo sapiens (Human), UniProt P00746); experiment: biochemical; type: biochemical; conditions: read-out: IC50
Sequence (P00746 26-253): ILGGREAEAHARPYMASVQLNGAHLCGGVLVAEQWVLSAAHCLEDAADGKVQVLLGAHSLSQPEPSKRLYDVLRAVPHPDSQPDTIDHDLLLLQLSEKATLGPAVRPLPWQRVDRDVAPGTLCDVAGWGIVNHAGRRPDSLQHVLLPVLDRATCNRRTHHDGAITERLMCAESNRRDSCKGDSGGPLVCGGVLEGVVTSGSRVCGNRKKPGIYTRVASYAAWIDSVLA

Row | SMILES | IC50
1 | C[C@]1(O)C[C@@H](C(=O)NCc2cccc(Cl)c2F)N(C(=O)Nc2cn(C(N)=O)c3ccccc23)C1 [Example 164, (2S,4S)-4-Hydroxy-4-methyl-pyrrolidine-1,2-dicarboxylic acid 1-[(1-carbamoyl-1H-indol-3-yl)-amide] 2-(3-chloro-2-fluoro-benzylamide)] | 400 nM
2 | Cc1ncc(NC(=O)[C@@H]2C[C@@H](F)CN2C(=O)Nc2cn(C(N)=O)c3ccccc23)cc1Br [Example 165, (2S,4R)-4-Fluoro-pyrrolidine-1,2-dicarboxylic acid 1-[(1-carbamoyl-1H-indol-3-yl)-amide] 2-[(5-bromo-4-methyl-pyridin-3-yl)-amide]] | 140 nM
3 | NC(=O)n1cc(NC(=O)N2C3CC3C[C@H]2C(=O)NCc2cccc(Cl)c2F)c2ccccc21 (stereo partly drawn) [Example 166, (1R,3S,5R)-2-Aza-bicyclo[3.1.0]hexane-2,3-dicarboxylic acid 2-[(1-carbamoyl-1H-indol-3-yl)-amide] 3-(3-chloro-2-fluoro-benzylamide)] | 3 nM
4 | Cc1ncc(Br)cc1NC(=O)[C@@H]1C[C@@H](F)CN1C(=O)Nc1cn(C(N)=O)c2ccccc12 [Example 168, (2S,4R)-4-Fluoro-pyrrolidine-1,2-dicarboxylic acid 2-[(5-bromo-2-methyl-pyridin-3-yl)-amide] 1-[(1-carbamoyl-1H-indol-3-yl)-amide]] | 250 nM
5 | NC(=O)n1cc(NC(=O)N2CCS[C@H]2C(=O)NCc2cccc(F)c2F)c2ccccc21 [Example 169, (S)-Thiazolidine-2,3-dicarboxylic acid 3-[(1-carbamoyl-1H-indol-3-yl)-amide] 2-(2,3-difluoro-benzylamide)] | 268 nM
6 | NC(=O)n1cc(NC(=O)N2CCC[C@H]2C(=O)NCc2cccc(Cl)c2F)c2ccccc21 [Example 170, (S)-Pyrrolidine-1,2-dicarboxylic acid 1-[(1-carbamoyl-1H-indol-3-yl)-amide] 2-(3-chloro-2-fluoro-benzylamide)] | 30 nM
7 | NC(=O)n1cc(NC(=O)N2[C@@H]3C[C@@H]3C[C@H]2C(=O)Nc2cncc(Br)c2)c2ccccc21 [Example 171, (1R,3S,5R)-2-Aza-bicyclo[3.1.0]hexane-2,3-dicarboxylic acid 2-[(1-carbamoyl-1H-indol-3-yl)-amide] 3-[(5-bromo-pyridin-3-yl)-amide]] | 200 nM
8 | NC(=O)n1cc(NC(=O)N2[C@@H]3C[C@@H]3C[C@H]2C(=O)Nc2ncccc2F)c2ccccc21 [Example 172, (1R,3S,5R)-2-Aza-bicyclo[3.1.0]hexane-2,3-dicarboxylic acid 2-[(1-carbamoyl-1H-indol-3-yl)-amide] 3-[(3-fluoro-pyridin-2-yl)-amide]] | 1050 nM
9 | NC(=O)n1cc(NC(=O)N2CCS[C@H]2C(=O)NCc2cccc(Cl)c2)c2ccccc21 [Example 174, (S)-Thiazolidine-2,3-dicarboxylic acid 3-[(1-carbamoyl-1H-indol-3-yl)-amide] 2-(3-chloro-benzylamide)] | 35 nM
10 | NC(=O)n1cc(NC(=O)N2C3CC3C[C@H]2C(=O)Nc2cccc(Cl)c2F)c2ccccc21 (stereo partly drawn) [Example 176, (1R,3S,5R)-2-Aza-bicyclo[3.1.0]hexane-2,3-dicarboxylic acid 2-[(1-carbamoyl-1H-indol-3-yl)-amide] 3-[(3-chloro-2-fluoro-phenyl)-amide]] | 30 nM
11 | NC(=O)n1cc(NC(=O)N2CC[C@@H](O)[C@H]2C(=O)NCc2cccc(Cl)c2)c2ccccc21 [Example 177, (2S,3R)-3-Hydroxy-pyrrolidine-1,2-dicarboxylic acid 1-[(1-carbamoyl-1H-indol-3-yl)-amide] 2-(3-chloro-benzylamide)] | 85 nM
12 | NC(=O)n1cc(NC(=O)N2CCS[C@H]2C(=O)NCc2cccc(Cl)c2F)c2ccccc21 [Example 178, (S)-Thiazolidine-2,3-dicarboxylic acid 3-[(1-carbamoyl-1H-indol-3-yl)-amide] 2-(3-chloro-2-fluoro-benzylamide)] | 6 nM
13 | [N-]=[N+]=NC[C@H]1CC[C@@H](C(=O)Nc2cccc(OC(F)(F)F)c2)N1C(=O)Nc1cn(C(N)=O)c2ccccc12 [Example 179, (2S,5R)-5-azidomethyl-pyrrolidine-1,2-dicarboxylic acid 1-[(1-carbamoyl-1H-indol-3-yl)-amide]2-[(3-trifluoromethoxy-phenyl)-amide]] | 400 nM
14 | NC(=O)n1cc(NC(=O)N2CC3(CC3)C[C@H]2C(=O)NCc2cccc(Cl)c2)c2ccccc21 [Example 180, (S)-5-Aza-spiro[2.4]heptane-5,6-dicarboxylic acid 5-[(1-carbamoyl-1H-indol-3-yl)-amide] 6-(3-chloro-benzylamide)] | 650 nM
15 | NC(=O)n1cc(NC(=O)N2C[C@@](F)(CO)C[C@H]2C(=O)NCc2cccc(Cl)c2F)c2ccccc21 [Example 181, (2S,4R)-4-Fluoro-4-hydroxymethyl-pyrrolidine-1,2-dicarboxylic acid 1-[(1-carbamoyl-1H-indol-3-yl)-amide] 2-(3-chloro-2-fluoro-benzylamide)] | 20 nM
16 | C[C@H]1C[C@@H](C(=O)NCc2cccc(Cl)c2F)N(C(=O)Nc2cn(C(N)=O)c3ccccc23)C1 [Example 182, (2S,4S)-4-Methyl-pyrrolidine-1,2-dicarboxylic acid 1-[(1-carbamoyl-1H-indol-3-yl)-amide] 2-(3-chloro-2-fluoro-benzylamide)] | 63 nM
17 | NC(=O)n1cc(NC(=O)N2C3CC3C[C@H]2C(=O)NCc2cccc(Cl)c2)c2ccccc21 (stereo partly drawn) [Example 183, (1R,3S,5R)-2-Aza-bicyclo[3.1.0]hexane-2,3-dicarboxylic acid 2-[(1-carbamoyl-1H-indol-3-yl)-amide] 3-(3-chloro-benzylamide)] | 20 nM
18 | COC[C@@]12C[C@@H](C(=O)NCc3cccc(Cl)c3F)N(C(=O)Nc3cn(C(N)=O)c4ccccc34)[C@@H]1C2 [Example 184, (1R,3S,5S)-5-Methoxymethyl-2-aza-bicyclo[3.1.0]hexane-2,3-dicarboxylic acid 2-[(1-carbamoyl-1H-indol-3-yl)-amide] 3-(3-chloro-2-fluoro-benzylamide)] | 9 nM
19 | NC(=O)n1cc(NC(=O)N2C3CC3C[C@H]2C(=O)Nc2ccncc2F)c2ccccc21 (stereo partly drawn) [Example 185, (1R,3S,5R)-2-Aza-bicyclo[3.1.0]hexane-2,3-dicarboxylic acid 2-[(1-carbamoyl-1H-indol-3-yl)-amide] 3-[(3-fluoro-pyridin-4-yl)-amide]] | 550 nM
20 | CO[C@@H]1CCN(C(=O)Nc2cn(C(N)=O)c3ccccc23)[C@@H]1C(=O)NCc1cccc(Cl)c1F [Example 186, (2S,3R)-3-Methoxy-pyrrolidine-1,2-dicarboxylic acid 1-[(1-carbamoyl-1H-indol-3-yl)-amide] 2-(3-chloro-2-fluoro-benzylamide)] | 20 nM
21 | N#C[C@H]1C[C@@H](C(=O)Nc2cccc(OC(F)(F)F)c2F)N(C(=O)Nc2cn(C(N)=O)c3ccccc23)C1 [Example 188, (2S,4S)-4-cyano-pyrrolidine-1,2-dicarboxylic acid 1-[(1-carbamoyl-1H-indol-3-yl)-amide]2-[(2-fluoro-3-trifluoromethoxy-phenyl)-amide]] | 1070 nM
22 | CN(C)[C@@H]1CN(C(=O)Nc2cn(C(N)=O)c3ccccc23)[C@H](C(=O)NCc2cccc(Cl)c2F)[C@H]1F [Example 189, (2R,3S,4R)-4-Dimethylamino-3-fluoro-pyrrolidine-1,2-dicarboxylic acid 1-[(1-carbamoyl-1H-indol-3-yl)-amide] 2-(3-chloro-2-fluoro-benzylamide)] | 942 nM
23 | NC(=O)n1cc(NC(=O)N2CC[C@@H](F)[C@H]2C(=O)NCc2cccc(Cl)c2F)c2ccccc21 [Example 190, (2R,3R)-3-Fluoro-pyrrolidine-1,2-dicarboxylic acid 1-[(1-carbamoyl-1H-indol-3-yl)-amide] 2-(3-chloro-2-fluoro-benzylamide)] | 20 nM
24 | C[C@@]1(C(=O)Nc2cccc(OC(F)(F)F)c2)CCCN1C(=O)Nc1cn(C(N)=O)c2ccccc12 [Example 192, (S)-2-Methyl-pyrrolidine-1,2-dicarboxylic acid 1-[(1-carbamoyl-1H-indol-3-yl)-amide] 2-[(3-trifluoromethoxy-phenyl)-amide]] | 17800 nM
25 | NC(=O)n1cc(NC(=O)N2C[C@H](F)C[C@H]2C(=O)Nc2cncc(Cl)c2)c2ccccc21 [Example 193, (2S,4R)-4-Fluoro-pyrrolidine-1,2-dicarboxylic acid 1-[(1-carbamoyl-1H-indol-3-yl)-amide] 2-[(5-chloro-pyridin-3-yl)-amide]] | 160 nM
26 | NC(=O)n1cc(NC(=O)N2C[C@H](F)C[C@H]2C(=O)Nc2cncc(Br)c2)c2ccccc21 [Example 194, (2S,4R)-4-Fluoro-pyrrolidine-1,2-dicarboxylic acid 1-[(1-carbamoyl-1H-indol-3-yl)-amide] 2-[(5-bromo-pyridin-3-yl)-amide]] | 93 nM
27 | NC(=O)n1cc(NC(=O)N2[C@@H]3C[C@@H]3C[C@H]2C(=O)NCc2cccc(F)c2F)c2ccccc21 [Example 195, (1R,3S,5R)-2-Aza-bicyclo[3.1.0]hexane-2,3-dicarboxylic acid 2-[(1-carbamoyl-1H-indol-3-yl)-amide] 3-(2,3-difluoro-benzylamide)] | 14 nM
28 | NC(=O)n1cc(NC(=O)N2C[C@@](O)(CO)C[C@H]2C(=O)NCc2cccc(Cl)c2F)c2ccccc21 [Example 196, (2S,4R)-4-Hydroxy-4-hydroxymethyl-pyrrolidine-1,2-dicarboxylic acid 1-[(1-carbamoyl-1H-indol-3-yl)-amide] 2-(3-chloro-2-fluoro-benzylamide)] | 700 nM
29 | NC(=O)n1cc(NC(=O)N2C[C@H]3OC3[C@H]2C(=O)NCc2cccc(Cl)c2F)c2ccccc21 (stereo partly drawn) [Example 197, (1S,2S,5R)-6-Oxa-3-aza-bicyclo[3.1.0]hexane-2,3-dicarboxylic acid 3-[(1-carbamoyl-1H-indol-3-yl)-amide] 2-(3-chloro-2-fluoro-benzylamide)] | 100 nM
30 | COC(=O)c1cc(Br)cc(NC(=O)[C@@H]2SCCN2C(=O)Nc2cn(C(N)=O)c3ccccc23)c1 [Example 198, 3-Bromo-5-{[(S)-3-(1-carbamoyl-1H-indol-3-ylcarbamoyl)-thiazolidine-2-carbonyl]-amino}-benzoic acid methyl ester] | 357 nM

From US9085555B2, “Complement pathway modulators and uses thereof” (priority 2011, dated 2015)
